Usually IC50 stands for the point on the concentration scale where inhibition reaches its midpoint. Read a high IC50 as a need for much substance.

Holding throughout (type): biochemical
One test deals with factor Xa (Homo sapiens, UniProt P00742). As to the kind of experiment: factor Xa amidolytic assay (XA). To be noted: substrate S-2765, pH 7.5, room temperature. As for the experimental part: (§1) The compounds of the present invention are dissolved in buffer to give solutions containing concentrations such that assay concentrations range from about 0 to about 100 μM. In the assays for thrombin, prothrombinase and factor Xa, a synthetic chromogenic substrate is added to a solution containing test compound and the enzyme of interest and the residual catalytic activity of that enzyme is determined spectrophotometrically. The IC50 of a compound is determined from the substrate turnover. The IC50 is the concentration of test compound giving about 50% inhibition of the substrate turnover.
(§2) The factor Xa and thrombin assays were performed at room temperature, in 0.02 M Tris.HCl buffer, pH 7.5, containing 0.15 M NaCl. The rates of hydrolysis of the para-nitroanilide substrate S-2765 (Chromogenix) for factor Xa, and the substrate Chromozym TH (Boehringer Mannheim) for thrombin following preincubation of the enzyme with inhibitor for 5 minutes at room temperature, and were determined using the Softmax 96-well plate reader (Molecular Devices), monitored at 405 nm to measure the time dependent appearance of p-nitroaniline.

For a further test, the target named is thrombin (Homo sapiens, UniProt P00734). As to the kind of experiment: thrombin amidolytic assay (IIA). As to conditions: substrate Chromozym TH, pH 7.5, room temperature. How it is done: as §1, §2
The subject of the next test is KALLIKREIN
The test is described as follows: kallikrein protease inhibition assay.

The target of another test is T1, TRYPSIN (Bos taurus, UniProt P00760).
T1 construct: gene PRSS1
T1 sequence (P00760 24-246): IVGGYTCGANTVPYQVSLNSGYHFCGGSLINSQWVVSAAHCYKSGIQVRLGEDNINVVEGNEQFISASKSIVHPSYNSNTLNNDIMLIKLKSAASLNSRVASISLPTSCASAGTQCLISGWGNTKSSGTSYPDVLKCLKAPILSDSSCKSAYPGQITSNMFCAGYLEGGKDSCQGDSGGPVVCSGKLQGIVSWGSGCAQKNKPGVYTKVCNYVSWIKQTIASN
As to the kind of experiment: trypsin protease inhibition assay.

Another test has as its target APC (Homo sapiens, UniProt P04070). As to the kind of experiment: APC protease inhibition assay.
For another test, the target named is TPA (Homo sapiens, UniProt P00750). The test is described as follows: TPA protease inhibition assay.
The target in the next test is PLASMIN (Homo sapiens, UniProt P00747). The test is described as follows: plasmin protease inhibition assay.
For another test, the target named is prothrombinase complex (Homo sapiens, UniProt P00742). The test is described as follows: prothrombinase inhibition assay (IIASE), plasma free system. As to conditions: factor Xa 0.5 nM, factor Va 2 nM, phospholipid, Chromozym TH. As for the experimental part: as §1
The prothrombinase inhibition assay was performed in a plasma free system with modifications to the method described by Sinha, U. et al., Thromb. Res., 75, 427-436 (1994). Specifically, the activity of the prothrombinase complex was determined by measuring the time course of thrombin generation using the p-nitroanilide substrate Chromozym TH. The assay consists of preincubation (5 minutes) of selected compounds to be tested as inhibitors with the complex formed from factor Xa (0.5 nM), factor Va (2 nM), phosphatidyl serine:phosphatidyl choline (25:75, 20 μM) in 20 mM Tris.HCl buffer, pH 7.5, containing 0.15 M NaCl, 5 mM CaCl2 and 0.1% bovine serum albumin. Aliquots from the complex-inhibitor mixture were added to prothrombin (1 nM) and Chromozym TH (0.1 mM). The rate of substrate cleavage was monitored at 405 nm for two minutes. Eight different concentrations of inhibitor were assayed in duplicate. A standard curve of thrombin generation by an equivalent amount of untreated complex was used for determination of percent inhibition.

APC, sequence (P04070 212-450 limits assumed): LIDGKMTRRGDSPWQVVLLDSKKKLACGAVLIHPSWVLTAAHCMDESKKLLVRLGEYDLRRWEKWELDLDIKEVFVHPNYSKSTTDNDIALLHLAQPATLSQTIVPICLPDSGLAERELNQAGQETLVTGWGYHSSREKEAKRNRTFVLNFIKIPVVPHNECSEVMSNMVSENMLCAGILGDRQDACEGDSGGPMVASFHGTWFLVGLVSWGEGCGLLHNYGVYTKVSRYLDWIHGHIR
APC, sequence (P04070 43-197 partner limits assumed): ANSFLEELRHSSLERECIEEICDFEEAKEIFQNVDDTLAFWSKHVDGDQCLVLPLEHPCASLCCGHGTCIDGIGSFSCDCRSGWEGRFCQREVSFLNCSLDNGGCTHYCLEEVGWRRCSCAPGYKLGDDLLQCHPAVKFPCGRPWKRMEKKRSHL
prothrombinase complex, sequence (P00742 235-488 limits assumed): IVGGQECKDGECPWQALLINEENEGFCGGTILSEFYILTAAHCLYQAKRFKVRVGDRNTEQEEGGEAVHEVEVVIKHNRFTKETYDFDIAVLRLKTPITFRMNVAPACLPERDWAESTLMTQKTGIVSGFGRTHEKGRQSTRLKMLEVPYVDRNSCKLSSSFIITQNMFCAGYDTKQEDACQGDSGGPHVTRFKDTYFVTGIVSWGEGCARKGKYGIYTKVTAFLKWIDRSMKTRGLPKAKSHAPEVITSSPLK
prothrombinase complex, sequence (P00742 41-179 partner limits assumed): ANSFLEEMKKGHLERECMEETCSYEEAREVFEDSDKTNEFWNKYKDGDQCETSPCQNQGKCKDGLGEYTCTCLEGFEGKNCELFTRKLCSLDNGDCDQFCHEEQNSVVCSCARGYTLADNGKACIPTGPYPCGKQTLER
prothrombinase complex, sequence (P12259 29-737 partner limits assumed): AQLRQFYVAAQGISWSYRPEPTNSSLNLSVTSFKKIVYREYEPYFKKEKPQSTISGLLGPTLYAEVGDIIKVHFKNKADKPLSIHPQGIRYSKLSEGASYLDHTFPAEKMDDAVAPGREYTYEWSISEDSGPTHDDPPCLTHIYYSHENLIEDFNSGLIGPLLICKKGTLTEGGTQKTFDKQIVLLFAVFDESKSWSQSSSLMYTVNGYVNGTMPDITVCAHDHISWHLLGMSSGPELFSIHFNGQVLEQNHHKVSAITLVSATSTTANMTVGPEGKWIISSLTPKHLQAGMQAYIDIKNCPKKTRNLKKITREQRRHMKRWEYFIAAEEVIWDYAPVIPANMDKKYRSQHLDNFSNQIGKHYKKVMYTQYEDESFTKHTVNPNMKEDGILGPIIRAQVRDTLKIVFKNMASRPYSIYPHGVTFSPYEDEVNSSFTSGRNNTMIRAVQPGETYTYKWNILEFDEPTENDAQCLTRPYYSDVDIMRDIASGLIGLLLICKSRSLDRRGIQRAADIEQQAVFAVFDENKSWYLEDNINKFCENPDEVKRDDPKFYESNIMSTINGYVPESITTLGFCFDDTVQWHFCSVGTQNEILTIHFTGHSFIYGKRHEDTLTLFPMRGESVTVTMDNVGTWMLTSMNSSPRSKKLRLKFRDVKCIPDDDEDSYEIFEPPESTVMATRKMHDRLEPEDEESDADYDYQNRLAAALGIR
prothrombinase complex, sequence (P12259 1574-2224 partner limits assumed): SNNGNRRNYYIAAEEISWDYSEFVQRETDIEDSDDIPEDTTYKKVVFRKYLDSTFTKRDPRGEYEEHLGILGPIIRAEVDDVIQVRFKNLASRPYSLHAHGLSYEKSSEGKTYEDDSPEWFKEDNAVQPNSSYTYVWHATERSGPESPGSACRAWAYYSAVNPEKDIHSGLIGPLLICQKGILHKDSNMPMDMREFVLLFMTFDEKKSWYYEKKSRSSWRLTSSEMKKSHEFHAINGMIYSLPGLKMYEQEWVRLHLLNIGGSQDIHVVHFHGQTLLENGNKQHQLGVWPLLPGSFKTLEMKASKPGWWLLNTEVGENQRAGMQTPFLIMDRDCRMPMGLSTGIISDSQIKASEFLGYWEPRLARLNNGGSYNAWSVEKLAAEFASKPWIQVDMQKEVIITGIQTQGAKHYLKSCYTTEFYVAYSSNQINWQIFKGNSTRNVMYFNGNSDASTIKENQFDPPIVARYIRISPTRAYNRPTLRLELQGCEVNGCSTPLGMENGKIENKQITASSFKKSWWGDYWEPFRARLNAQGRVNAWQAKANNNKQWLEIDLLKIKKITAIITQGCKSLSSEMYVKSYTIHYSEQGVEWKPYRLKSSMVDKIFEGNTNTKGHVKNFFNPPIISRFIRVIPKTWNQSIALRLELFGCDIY
factor Xa, sequence (P00742 235-488 limits assumed): as the sequence (P00742 235-488 limits assumed) above
factor Xa, sequence (P00742 41-179 partner limits assumed): as the sequence (P00742 41-179 partner limits assumed) above
PLASMIN, sequence (P00747 581-810 limits assumed, species assumed): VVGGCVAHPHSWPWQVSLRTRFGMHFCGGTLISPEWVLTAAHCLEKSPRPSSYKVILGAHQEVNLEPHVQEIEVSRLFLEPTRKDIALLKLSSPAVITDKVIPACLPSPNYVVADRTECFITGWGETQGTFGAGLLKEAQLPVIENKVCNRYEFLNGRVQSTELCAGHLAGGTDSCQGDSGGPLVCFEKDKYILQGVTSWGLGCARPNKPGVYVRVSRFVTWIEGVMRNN
PLASMIN, sequence (P00747 97-580 partner limits assumed, species assumed): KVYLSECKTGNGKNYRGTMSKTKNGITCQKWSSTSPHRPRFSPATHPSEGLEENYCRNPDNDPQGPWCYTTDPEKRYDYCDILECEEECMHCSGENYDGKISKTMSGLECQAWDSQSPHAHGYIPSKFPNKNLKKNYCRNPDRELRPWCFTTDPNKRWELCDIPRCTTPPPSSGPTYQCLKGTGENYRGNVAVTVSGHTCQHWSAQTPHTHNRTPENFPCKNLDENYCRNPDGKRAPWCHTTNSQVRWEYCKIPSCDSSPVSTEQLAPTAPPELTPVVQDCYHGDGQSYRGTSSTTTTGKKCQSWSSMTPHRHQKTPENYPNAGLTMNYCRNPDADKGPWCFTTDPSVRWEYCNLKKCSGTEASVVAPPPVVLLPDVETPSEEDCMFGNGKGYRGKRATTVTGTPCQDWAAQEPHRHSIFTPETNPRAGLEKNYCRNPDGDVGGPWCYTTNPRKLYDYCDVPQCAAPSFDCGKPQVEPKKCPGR
TPA, sequence (P00750 36-562, species assumed): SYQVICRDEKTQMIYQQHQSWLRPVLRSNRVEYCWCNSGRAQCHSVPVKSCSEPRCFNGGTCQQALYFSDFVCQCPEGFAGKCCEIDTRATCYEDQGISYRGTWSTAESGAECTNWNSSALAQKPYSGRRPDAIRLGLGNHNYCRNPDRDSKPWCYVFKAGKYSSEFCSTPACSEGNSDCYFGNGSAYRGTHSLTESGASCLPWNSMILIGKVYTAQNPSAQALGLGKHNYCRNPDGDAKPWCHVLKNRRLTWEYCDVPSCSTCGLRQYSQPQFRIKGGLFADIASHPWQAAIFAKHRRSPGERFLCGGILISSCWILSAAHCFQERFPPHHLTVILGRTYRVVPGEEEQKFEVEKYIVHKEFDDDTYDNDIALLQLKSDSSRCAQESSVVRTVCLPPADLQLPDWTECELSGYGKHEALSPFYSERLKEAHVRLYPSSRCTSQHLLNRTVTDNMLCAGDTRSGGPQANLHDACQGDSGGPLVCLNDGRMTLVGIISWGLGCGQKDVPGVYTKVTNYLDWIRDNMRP

Turning to `N=C(N)c1ccc(Cn2c(=O)[nH]c3ccc(OC4CCN(C(=N)N)CC4)cc32)cc1` [Example 1], the IC50 against factor Xa worked out at 9.22 µM; at thrombin it was 333 µM; in the test with KALLIKREIN, 9.54 µM; against TRYPSIN, 21.8 µM; against APC, 99.2 µM.
Turning to `CC(=N)N1CCC(Oc2ccc3[nH]c(=O)n(Cc4ccc5ccc(C(=N)N)cc5c4)c3c2)CC1` [Example 4], the IC50 was 0.0204 µM on factor Xa; 101 µM on TPA; 286 µM on thrombin; 0.508 µM in the test with KALLIKREIN; 8.94 µM against PLASMIN; 0.133 µM on TRYPSIN. Moreover, the IC50 on APC was 15.9 µM; at prothrombinase complex, 0.0222 µM.
In the case of `CC(=N)N1CCC(Oc2ccc3c(c2)n(Cc2ccc4ccc(C(=N)N)cc4c2)c(=O)n3C)CC1` [Example 6], the IC50 at factor Xa stood at 0.027 µM; against TPA, 36.1 µM; on thrombin, 32.1 µM; with KALLIKREIN it was 0.592 µM; against PLASMIN, 3.67 µM; at TRYPSIN it was 0.0557 µM. The results for the IC50 on APC and at prothrombinase complex were 7.65 µM and 0.422 µM, respectively.
`Cn1c(=O)n(Cc2ccc3ccc(C(=N)N)cc3c2)c2cc(OC3CCN(C(=N)N)CC3)ccc21` [Example 7]: the IC50 against factor Xa was determined as 0.032 µM; on TPA it was 31.8 µM; at thrombin it was 24.5 µM; with KALLIKREIN, 0.615 µM; against PLASMIN it was 2.98 µM; on TRYPSIN it was 0.0322 µM. For the same compound, the IC50 against APC came to 6.42 µM; at prothrombinase complex, 0.401 µM.
For `CC(=N)N1CCC(Oc2ccc3c(c2)n(Cc2ccc4ccc(C(=N)N)cc4c2)c(=O)n3C(C)C)CC1` [Example 8], the IC50 was 0.0286 µM on factor Xa; 77.8 µM at TPA; 30.2 µM at thrombin; 0.349 µM in the test with KALLIKREIN; 3.5 µM against PLASMIN; 0.349 µM against TRYPSIN. For the same compound, the values for the IC50 against APC and at prothrombinase complex were 2.48 µM and 0.425 µM, respectively.
For `CC(C)n1c(=O)n(Cc2ccc3ccc(C(=N)N)cc3c2)c2cc(OC3CCN(C(=N)N)CC3)ccc21` [Example 9], the IC50 at factor Xa was determined as 0.0498 µM; against TPA, 92.8 µM; against thrombin, 14.9 µM; in the test with KALLIKREIN, 0.392 µM; against PLASMIN, 2.23 µM; at TRYPSIN, 0.392 µM. For the same compound, the IC50 at APC is 1.85 µM; against prothrombinase complex, 0.827 µM.
Consider `CC(=N)N1CCC(Oc2ccc3c(c2)n(Cc2ccc4ccc(C(=N)N)cc4c2)c(=O)n3CC(=O)OCC(C)C)CC1` [Example 12], for which the IC50 on factor Xa is 0.0108 µM; at TPA, 54 µM; against thrombin, 264 µM; with KALLIKREIN, 1.34 µM; against PLASMIN, 4.22 µM; on TRYPSIN, 0.0816 µM. Besides, the IC50 against APC worked out at 8.12 µM; against prothrombinase complex, 0.103 µM.
Consider `CC(C)COC(=O)Cn1c(=O)n(Cc2ccc3ccc(C(=N)N)cc3c2)c2cc(OC3CCN(C(=N)N)CC3)ccc21` [Example 13], for which the IC50 was determined as 0.0178 µM at factor Xa; 42.8 µM against TPA; 59.9 µM against thrombin; 1.25 µM in the test with KALLIKREIN; 2.71 µM against PLASMIN; 0.0441 µM against TRYPSIN. For the same compound, the IC50 was determined as 6.51 µM at APC and 0.25 µM against prothrombinase complex.
As to `CC(=N)N1CCC(Oc2ccc3c(c2)n(Cc2ccc4ccc(C(=N)N)cc4c2)c(=O)n3CC(=O)O)CC1` [Example 14], the IC50 against factor Xa was found to be 0.00815 µM; on TPA, 88.1 µM; in the test with KALLIKREIN it was 2.95 µM; at PLASMIN, 6.04 µM; at TRYPSIN it was 0.192 µM; on APC, 19.3 µM. The compound also gave an IC50 against prothrombinase complex of 0.481 µM.
For `N=C(N)c1ccc2ccc(Cn3c(=O)n(CC(=O)O)c4ccc(OC5CCN(C(=N)N)CC5)cc43)cc2c1` [Example 15], the IC50 at factor Xa stood at 0.0671 µM; at TPA, 169 µM; in the test with KALLIKREIN, 9.22 µM; against PLASMIN, 17 µM; at TRYPSIN, 0.163 µM; against APC, 49.8 µM. 4.22 µM corresponded to half-maximal inhibition at prothrombinase complex (IC50).
As to `CCn1c(Cn2c(=O)[nH]c3ccc(OC4CCN(C(C)=N)CC4)cc32)cc2ccc(C(=N)N)cc21` [Example 17], the IC50 is 14 µM against factor Xa, 0.267 µM against thrombin, 0.409 µM against TRYPSIN and 0.526 µM on prothrombinase complex.
In the case of `CCn1c(Cn2c(=O)[nH]c3ccc(OC4CCN(C(=N)N)CC4)cc32)cc2ccc(C(=N)N)cc21` [Example 18], the IC50 against factor Xa worked out at 1.77 µM; against thrombin, 0.302 µM; at TRYPSIN it was 0.509 µM; against prothrombinase complex, 0.47 µM.

The values are drawn from US20020019395A1, “Indalone and benzimidazolone inhibitors of factor Xa” (priority 2000, published 2002).
